Reference: patent US20140356361A1, “REPEATED ADMINISTRATION OF NON-IMMUNOSUPPRESSIVE ANTIGEN SPECIFIC IMMUNOTHERAPEUTICS” (Selecta Biosciences, Inc., priority 2013, published 2014)

Experiments:
Format in all cases: in vivo, C57BL/6 mice
[1] = system: keyhole limpet hemocyanin (KLH); assay: Anti-KLH IgG titers, MTX given with KLH i.v. (Example 18); settings: MTX i.p. days 1-3, 7-9, 14-16; 200 μg KLH i.v. weekly, 5 injections; FIG. 3
Experimental: (§1) In order to test whether multiple injections of MTX can lead to the establishment of immunological tolerance, C57BL/6 age-matched (5-6 weeks) female mice were injected intravenously in the tail vein with weekly injections of 200 μg of keyhole limpet hemocyanin (KLH) and subcutaneously in the hind limbs with 25 μg of a particulate form of chicken Ovalbumin (pOVA) admixed to 2 μg of CpG oligodeoxynucleotides (ODN). With the first three antigen injections, a group of animals received 3 intraperitoneal injections of MTX on the same day and the following 2 days. All animals received 5 injections of antigen (d0, 7, 14, 21 and 28) and one group received 9 additional injections of MTX i.p. (days 1-3, 7-9, 14-16).
(§2) The anti-KLH and anti-OVA responses were monitored in the blood in these animals at different time points.

chicken Ovalbumin (pOVA) [2] = assay: Anti-OVA antibody response, MTX given with pOVA (Example 17); settings: 200 μg MTX i.p. days 1-3, 7-9, 14-16; 5 weekly i.v. injections of 25 μg pOVA; FIG. 2
Experimental: (§3) C57BL/6 age-matched (5-6 weeks) female mice were injected 5 times intravenously in the tail vein with weekly injections of 25 μg of an immunogenic, particulate form of chicken Ovalbumin (pOVA). One group of animals received 3 intraperitoneal injections of 200 μg of MTX along with the 3 first antigen injections the same day and the 2 following days. The untreated group received only antigen whereas the treated group received 9 injections total of MTX i.p. (days 1-3, 7-9, 14-16). On the 4th and 5th injection days all animals received 20 μg of keyhole limpet hemocyanine (KLH) subcutaneously in the hind limbs admixed to 2 μg of CpG in addition to the i.v. injection of pOVA.
(§4) The anti-KLH and anti-OVA antibody responses were monitored in the blood in these animals at different time points.

chicken Ovalbumin (pOVA) [3] = assay: Anti-OVA IgG titers, MTX given with pOVA+CpG s.c. (Example 18); settings: MTX i.p. days 1-3, 7-9, 14-16; 25 μg pOVA + 2 μg CpG s.c. weekly, 5 injections; FIG. 3
Experimental: as §1, §2

[4] = system: keyhole limpet hemocyanine (KLH); assay: Anti-KLH antibody response, KLH+CpG given after MTX treatment (Example 17); settings: 20 μg KLH + 2 μg CpG s.c. injected after the MTX treatments (from d21); FIG. 2
Experimental: as §3, §4

## CN(Cc1cnc2nc(N)nc(N)c2n1)c1ccc(C(=O)N[C@@H](CCC(=O)O)C(=O)O)cc1 [MTX, Methotrexate]
[1]
  anti-KLH IgG antibody titers: blocked both responses and the animals showed low titers
Chicken Ovalbumin (pOVA) [2]
  anti-OVA antibody response: blocked the antibody response and only minimal titers were detected
Chicken Ovalbumin (pOVA) [3]
  anti-OVA IgG antibody titers: blocked both responses and the animals showed low titers
[4]
  anti-KLH response: robust anti-KLH response could be detected in all groups
